Test results reported in patent US20240343740A1, “MACROCYCLIC GLUCAGON-LIKE PEPTIDE 1 RECEPTOR AGONISTS” (Eli Lilly and Company, priority 2021, published 2024).
One block for each compound: values may come before it.

Experiments:
human GLP-1R [1] = target: T1, human GLP-1R (Homo sapiens, UniProt P43220); assay: Human GLP-1 Receptor HEK293 cell cAMP assay, 581 fmol/mg GLP-1R expression density; format: cell-based; set-up: expressed in transfected cells; host or cells: HEK293 clonal cell line; details: HEK293 cell line with 581 fmol/mg expression density of GLP-1R; for EC50: geometric mean, read-out: EC50 nM (SEM, n), intracellular cAMP response, relative EC50; for Emax: percent of maximal response to GLP-1(7-36)NH2, arithmetic mean, read-out: Emax % (SEM, n), intracellular cAMP response
Method: (§1) Human GLP-1 Receptor HEK293 Cell cAMP Assay
(§2) GLP-1 Receptor functional activity is determined using cAMP formation in an HEK293 clonal cell line expressing human GLP-1R (NCBI accession number NP_002053) at an expression density of 581±94 (n=6) and 104±12 (n=5) fmol/mg protein (determined using [^125I]GLP-1(7-36)NH2 homologous competition binding analysis). The hGLP-1R receptor expressing cells are treated with compound (20 point concentration-response curve in DMSO, 2.75-fold Labcyte Echo direct dilution, 384 well plate Corning Cat #3570) in DMEM (Gibco Cat #31053) supplemented with 1× GlutaMAX™ (Gibco Cat #35050), 0.1% bovine casein (Sigma C4765-10ML), 250 μM IBMX (3-Isobutyl-1-methylxanthine, Acros Cat #228420010) and 20 mM HEPES (Gibco Cat #15630) in a 20 μL assay volume (final DMSO concentration is 0.5%). After a 30 min incubation at 37° C., the resulting increase in intracellular cAMP is quantitatively determined using the CisBio cAMP Dynamic 2 HTRF Assay Kit (62AM4PEJ). Briefly, cAMP levels within the cell are detected by adding the cAMP-d2 conjugate in cell lysis buffer (10 μL) followed by the antibody anti-cAMP-Eu^3+-Cryptate, also in cell lysis buffer (10 μL). The resulting competitive assay is incubated for at least 60 min at RT, then detected using a PerkinElmer Envision® instrument with excitation at 320 nm and emission at 665 nm and 620 nm. Envision units (emission at 665 nm/620 nm*10,000) are inversely proportional to the amount of cAMP present and are converted to nM cAMP per well using a cAMP standard curve. The amount of cAMP generated (nM) in each well is converted to a percent of the maximal response observed with human GLP-1(7-36)NH2. A relative EC50 value and percent top (Emax) are derived by non-linear regression analysis using the percent maximal response vs. the concentration of compound added, fitted to a four-parameter logistic equation.

human GLP-1R [2] = target: T1, human GLP-1R; assay: Human GLP-1 Receptor HEK293 cell cAMP assay, 104 fmol/mg GLP-1R expression density; format: cell-based; set-up: expressed in transfected cells; host or cells: HEK293 clonal cell line; details: HEK293 cell line with 104 fmol/mg expression density of GLP-1R; for EC50: geometric mean, read-out: EC50 nM (SEM, n), intracellular cAMP response, relative EC50; for Emax: percent of maximal response to GLP-1(7-36)NH2, arithmetic mean, read-out: Emax % (SEM, n), intracellular cAMP response
Method: as §1, §2

T1 sequence (P43220 24-463): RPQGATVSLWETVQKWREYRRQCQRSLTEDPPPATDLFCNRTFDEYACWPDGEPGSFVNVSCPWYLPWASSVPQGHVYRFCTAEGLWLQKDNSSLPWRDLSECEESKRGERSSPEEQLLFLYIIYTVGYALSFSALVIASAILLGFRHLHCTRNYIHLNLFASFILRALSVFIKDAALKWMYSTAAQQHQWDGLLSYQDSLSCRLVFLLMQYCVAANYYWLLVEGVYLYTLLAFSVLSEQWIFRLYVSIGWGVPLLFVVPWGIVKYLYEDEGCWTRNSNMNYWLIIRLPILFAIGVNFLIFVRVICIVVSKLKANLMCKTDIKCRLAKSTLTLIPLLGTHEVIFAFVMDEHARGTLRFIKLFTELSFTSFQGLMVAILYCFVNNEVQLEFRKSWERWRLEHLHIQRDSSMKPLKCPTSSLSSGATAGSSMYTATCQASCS

Structure (SMILES): N#Cc1ccc2cc1CCOCc1cc(ccc1Cc1nc3ccc(C(=O)O)cc3n1C[C@@H]1CCO1)-c1cccc(n1)OC2 [Example 21, (S)-2-((5^4-Cyano-3,8-dioxa-2(2,6)-pyridina-1,5(1,3)-dibenzenacyclononaphane-1^4-yl)methyl)-1-(oxetan-2-ylmethyl)-1H-benzo[d]imidazole-6-carboxylic acid]
EC50 (human GLP-1R [1]): 35.1 nM | Emax (human GLP-1R [1]): 111% | EC50 (human GLP-1R [2]): 133 nM | Emax (human GLP-1R [2]): 95.6%

Structure (SMILES): COc1cc(C(=O)O)cc2c1nc(Cc1cc(C)c3cc1OCCCc1cc(F)ccc1COc1cccc-3n1)n2C[C@@H]1CCO1 [Example 22, (S)-4-Methoxy-2-((1^6-methyl-5^4-(fluoro)-3,9-dioxa-2(2,6)-pyridina-1(1,3),5(1,2)-dibenzenacyclononaphane-1^4-yl)methyl)-1-(oxetan-2-ylmethyl)-1H-benzo[d]imidazole-6-carboxylic acid]
EC50 (human GLP-1R [1]): 2.86 nM | Emax (human GLP-1R [1]): 112% | EC50 (human GLP-1R [2]): 10.6 nM | Emax (human GLP-1R [2]): 80.9%

Structure (SMILES): COc1cc(C(=O)O)cc2c1nc(Cc1ccc3cc1OCCCc1cc(C#N)ccc1COc1cccc-3n1)n2Cc1ncco1 [Example 23, 2-((5^4-Cyano-3,9-dioxa-2(2,6)-pyridina-1(1,3),5(1,2)-dibenzenacyclononaphane-1^4-yl)methyl)-4-methoxy-1-(oxazol-2-ylmethyl)-1H-benzo[d]imidazole-6-carboxylic acid]
EC50 (human GLP-1R [1]): 69.3 nM | Emax (human GLP-1R [1]): 106% | EC50 (human GLP-1R [2]): 344 nM | Emax (human GLP-1R [2]): 83.7%

Structure (SMILES): COCCOc1cc(C(=O)O)cc2c1nc(Cc1ccc3cc1OCCCc1cc(C#N)ccc1COc1cccc-3n1)n2C[C@@H]1CCO1 [Example 24, (S)-2-((5^4-Cyano-3,9-dioxa-2(2,6)-pyridina-1(1,3),5(1,2)-dibenzenacyclononaphane-1^4-yl)methyl)-4-(2-methoxyethoxy)-1-(oxetan-2-ylmethyl)-1H-benzo[d]imidazole-6-carboxylic acid]
EC50 (human GLP-1R [1]): 2.34 nM | Emax (human GLP-1R [1]): 116% | EC50 (human GLP-1R [2]): 6.6 nM | Emax (human GLP-1R [2]): 89.6%

Structure (SMILES): COc1cc(C(=O)O)cc2c1nc(Cc1cc(C)c3cc1OCCCc1nc(C(F)(F)F)ccc1COc1cccc-3n1)n2C[C@@H]1CCO1 [Example 26, (S)-4-Methoxy-2-((1^6-methyl-5^6-(trifluoromethyl)-3,9-dioxa-2(2,6),5(3,2)-dipyridina-1(1,3)-benzenacyclononaphane-1^4-yl)methyl)-1-(oxetan-2-ylmethyl)-1H-benzo[d]imidazole-6-carboxylic acid; 1,3,4,6,7,8-hexahydro-2H-pyrimido[1,2-a]pyrimidine]
EC50 (human GLP-1R [1]): 1.66 nM | Emax (human GLP-1R [1]): 116% | EC50 (human GLP-1R [2]): 5.64 nM | Emax (human GLP-1R [2]): 91.3%

Structure (SMILES): COc1cc(C(=O)O)cc2c1nc(Cc1cc(C)c3cc1OCCCc1cnccc1COc1cccc-3n1)n2C[C@@H]1CCO1 [Example 27, (S)-4-Methoxy-2-((1^6-methyl-3,9-dioxa-2(2,6),5(4,3)-dipyridina-1(1,3)-benzenacyclononaphane-1^4-yl)methyl)-1-(oxetan-2-ylmethyl)-1H-benzo[d]imidazole-6-carboxylic acid]
EC50 (human GLP-1R [1]): 50.7 nM | Emax (human GLP-1R [1]): 107% | EC50 (human GLP-1R [2]): 165 nM | Emax (human GLP-1R [2]): 82.5%

Structure (SMILES): O=C(O)c1ccc2nc(Cc3ccc4cc3OCCCc3cc(-c5cnn(CC6COC6)c5)ccc3COc3cccc-4n3)n(C[C@@H]3CCO3)c2c1 [Example 28, (S)-1-(Oxetan-2-ylmethyl)-2-((5^4-(1-(oxetan-3-ylmethyl)-1H-pyrazol-4-yl)-3,9-dioxa-2(2,6)-pyridina-1(1,3),5(1,2)-dibenzenacyclononaphane-1^4-yl)methyl)-1H-benzo[d]imidazole-6-carboxylic acid]
EC50 (human GLP-1R [1]): 98.4 nM | Emax (human GLP-1R [1]): 104% | EC50 (human GLP-1R [2]): 287 nM | Emax (human GLP-1R [2]): 74.9%

Structure (SMILES): COc1ccc(-c2ccc3c(c2)CCCOc2cc(ccc2Cc2nc4ccc(C(=O)O)cc4n2C[C@@H]2CCO2)-c2cccc(n2)OC3)cn1 [Example 29, (S)-2-((5^4-(6-Methoxypyridin-3-yl)-3,9-dioxa-2(2,6)-pyridina-1(1,3),5(1,2)-dibenzenacyclononaphane-1^4-yl)methyl)-1-(oxetan-2-ylmethyl)-1H-benzo[d]imidazole-6-carboxylic acid]
EC50 (human GLP-1R [1]): 262 nM | Emax (human GLP-1R [1]): 92.4% | EC50 (human GLP-1R [2]): 562 nM | Emax (human GLP-1R [2]): 59.2%

Structure (SMILES): CS(=O)(=O)c1ccc(-c2ccc3c(c2)CCCOc2cc(ccc2Cc2nc4ccc(C(=O)O)cc4n2C[C@@H]2CCO2)-c2cccc(n2)OC3)cc1 [Example 33, (S)-2-((5^4-(4-(Methylsulfonyl)phenyl)-3,9-dioxa-2(2,6)-pyridina-1(1,3),5(1,2)-dibenzenacyclononaphane-1^4-yl)methyl)-1-(oxetan-2-ylmethyl)-1H-benzo[d]imidazole-6-carboxylic acid]
EC50 (human GLP-1R [1]): 40.8 nM | Emax (human GLP-1R [1]): 112% | EC50 (human GLP-1R [2]): 111 nM | Emax (human GLP-1R [2]): 85%

More lines, now with the values ahead:

EC50 (human GLP-1R [1]): 317 nM | Emax (human GLP-1R [1]): 98.3% | EC50 (human GLP-1R [2]): 703 nM | Emax (human GLP-1R [2]): 62.1%
Structure (SMILES): O=C(O)c1ccc2nc(Cc3ccc4cc3OCCCc3cc(CO)ccc3COc3cccc-4n3)n(C[C@@H]3CCO3)c2c1 [Example 25, (S)-2-((5^4-(Hydroxymethyl)-3,9-dioxa-2(2,6)-pyridina-1(1,3),5(1,2)-dibenzenacyclononaphane-1^4-yl)methyl)-1-(oxetan-2-ylmethyl)-1H-benzo[d]imidazole-6-carboxylic acid]

EC50 (human GLP-1R [1]): 35.6 nM | Emax (human GLP-1R [1]): 98.1% | EC50 (human GLP-1R [2]): 118 nM | Emax (human GLP-1R [2]): 77.1%
Structure (SMILES): O=C(O)c1ccc2nc(Cc3ccc4cc3OCCCc3cc(-c5cn[nH]c5)ccc3COc3cccc-4n3)n(C[C@@H]3CCO3)c2c1 [Example 30, (S)-2-((5^4-(1H-Pyrazol-4-yl)-3,9-dioxa-2(2,6)-pyridina-1(1,3),5(1,2)-dibenzenacyclononaphane-1^4-yl)methyl)-1-(oxetan-2-ylmethyl)-1H-benzo[d]imidazole-6-carboxylic acid]

EC50 (human GLP-1R [1]): 70.1 nM | Emax (human GLP-1R [1]): 104% | EC50 (human GLP-1R [2]): 251 nM | Emax (human GLP-1R [2]): 88.8%
Structure (SMILES): Cn1nccc1-c1ccc2c(c1)CCCOc1cc(ccc1Cc1nc3ccc(C(=O)O)cc3n1C[C@@H]1CCO1)-c1cccc(n1)OC2 [Example 31, (S)-2-((5^4-(1-Methyl-1H-pyrazol-5-yl)-3,9-dioxa-2(2,6)-pyridina-1(1,3),5(1,2)-dibenzenacyclononaphane-1^4-yl)methyl)-1-(oxetan-2-ylmethyl)-1H-benzo[d]imidazole-6-carboxylic acid]

EC50 (human GLP-1R [1]): 178 nM | Emax (human GLP-1R [1]): 98.9% | EC50 (human GLP-1R [2]): 530 nM | Emax (human GLP-1R [2]): 70.9%
Structure (SMILES): Cn1ncc(-c2ccc3c(c2)CCCOc2cc(ccc2Cc2nc4ccc(C(=O)O)cc4n2C[C@@H]2CCO2)-c2cccc(n2)OC3)n1 [Example 32, (S)-2-((5^4-(2-Methyl-2H-1,2,3-triazol-4-yl)-3,9-dioxa-2(2,6)-pyridina-1(1,3),5(1,2)-dibenzenacyclononaphane-1^4-yl)methyl)-1-(oxetan-2-ylmethyl)-1H-benzo[d]imidazole-6-carboxylic acid]

EC50 (human GLP-1R [1]): 167 nM | Emax (human GLP-1R [1]): 110% | EC50 (human GLP-1R [2]): 616 nM | Emax (human GLP-1R [2]): 82.3%
Structure (SMILES): COc1cc(-c2ccc3c(c2)CCCOc2cc(ccc2Cc2nc4ccc(C(=O)O)cc4n2C[C@@H]2CCO2)-c2cccc(n2)OC3)ccn1 [Example 34, (S)-2-((5^4-(2-Methoxypyridin-4-yl)-3,9-dioxa-2(2,6)-pyridina-1(1,3),5(1,2)-dibenzenacyclononaphane-1^4-yl)methyl)-1-(oxetan-2-ylmethyl)-1H-benzo[d]imidazole-6-carboxylic acid]

EC50 (human GLP-1R [1]): 95.8 nM | Emax (human GLP-1R [1]): 112% | EC50 (human GLP-1R [2]): 385 nM | Emax (human GLP-1R [2]): 88.1%
Structure (SMILES): O=C(O)c1ccc2nc(Cc3ccc4cc3OCCCc3cc(-c5cnn(C6CC6)c5)ccc3COc3cccc-4n3)n(C[C@@H]3CCO3)c2c1 [Example 35, (S)-2-((5^4-(1-Cyclopropyl-1H-pyrazol-4-yl)-3,9-dioxa-2(2,6)-pyridina-1(1,3),5(1,2)-dibenzenacyclononaphane-1^4-yl)methyl)-1-(oxetan-2-ylmethyl)-1H-benzo[d]imidazole-6-carboxylic acid]
